The values below come from article PMC11093668 (Clinical Infectious Diseases: An Official Publication of …, 2023).

For data set [1] the following is noted: human, in vivo.
The conditions of data set [2]: atazanavir co-administration; cited from earlier work.
The next data set is described as follows: clinical. Conditions: human, in vivo, geometric mean (90% CI).
For data set [3], the system named is HIV. Further details: method as in ref 26 = [26]; 26 Gonzalez de Requena D , Bonora S , Canta F , et al Atazanavir trough is associated with efficacy and safety: definition of therapeutic range. In: 6th Intenational Workshop on Clinical Pharmacology. The settings on record: secondary target; cited from earlier work.
Data set [4] has as its system HIV. Further details: method as in ref 25 = [25]; 25 Fda, Cder . Reyataz (atazanavir sulfate) capsules label. Available at: www.fda.gov/medwatch . Accessed 17 September 2019. Conditions: primary target minimum concentration; cited from earlier work.

Where two headings read alike, the source gives them in different places.

For `C[C@@H]1CCO[C@H]2Cn3cc(C(=O)NCc4ccc(F)cc4F)c(=O)c(O)c3C(=O)N12` [Dolutegravir, dolutegravir], the “AUC24 (exposure) higher with dose escalation of ATV/r” value in data set [1] worked out at 1.6 fold. Also, in data set [1] (12 h), the “Ctau higher with dose escalation of ATV/r” value worked out at 2 folds. The “increase in dolutegravir exposure” value in data set [2] was 91%.
For `COC(=O)N[C@H](C(=O)N[C@@H](Cc1ccccc1)[C@@H](O)CN(Cc1ccc(-c2ccccn2)cc1)NC(=O)[C@@H](NC(=O)OC)C(C)(C)C)C(C)(C)C` [Atazanavir, atazanavir], in data set [1], the “AUC24, geometric mean (90% CI)” value is 40 (35–46) mg·h/L; the “Clearance/F, geometric mean (90% CI)” value is 7.5 (6.6–8.7) L/h; the “T1/2, geometric mean (90% CI)” value was 11 (10–12) h. In data set [1] (12 h), the “Ctau, geometric mean ratio (90% CI)” value was 0.98 (0.81–1.2). In data set [1] (24 h), the “Ctau, geometric mean (90% CI)” value was 0.59 (0.48–0.74) mg/L; the “Ctau, geometric mean ratio (90% CI)” value is given as 0.039 (0.032– 0.048); the “lowest Ctau, fold higher than PA-IC90” value was determined as 12.7 fold; the “proportion of Ctau below the limit of quantification (0.03 mg/L)” value is listed as 65%. In addition, the highest level in “clinical” (Cmax) was 4600 ng/mL. The “minimum effective concentration (MEC)” value with HIV [3] is given as 0.15 mg/L. Moreover, the “protein-adjusted IC90 (PA-IC90)” value with HIV [4] was 0.014 µg/mL.
Turning to `CC(C)c1nc(CN(C)C(=O)N[C@H](C(=O)N[C@@H](Cc2ccccc2)C[C@H](O)[C@H](Cc2ccccc2)NC(=O)OCc2cncs2)C(C)C)cs1` [Ritonavir, ritonavir], in data set [1], the “AUC24, geometric mean (90% CI)” value is 9.5 (8.4 - 11) mg·h/L; the “Clearance/F, geometric mean (90% CI)” value is 11 (9.34 - 11.9 L/h; the “T1/2, geometric mean (90% CI)” value is listed as 5.7 (5.4- 6.1) h. Further, in data set [1] (24 h), the “Ctau, geometric mean (90% CI)” value is 0.068 (0.060- 0.077) mg/L.
Consider `CO[C@H]1/C=C/O[C@@]2(C)Oc3c(C)c(O)c4c(O)c(c(/C=N/N5CCN(C)CC5)c(O)c4c3C2=O)NC(=O)/C(C)=C\C=C\[C@H](C)[C@H](O)[C@@H](C)[C@@H](O)[C@@H](C)[C@H](OC(C)=O)[C@@H]1C` [Rifampicin, rifampicin], for which the “Ctau higher with dose escalated ATV/r” value in data set [1] (24 h) stood at 40%.
